Laboratory results from US20240158446A1, “CYCLIC COMPOUND HAVING SELECTIVE INHIBITORY ACTION ON KRAS OVER HRAS AND NRAS” (CHUGAI SEIYAKU KABUSHIKI KAISHA, priority 2021, published 2024).

Key:
[1] = target: GDP-bound NRAS wild-type protein (Homo sapiens, UniProt P01111); assay: Binding to NRAS by surface plasmon resonance (SPR), Single Cycle Kinetics; conditions: for NRAS/KRAS (ratio of KD value with respect to GDP-bound NRAS wild-type protein to KD value with respect to KRAS): SPR KD ratio NRAS/KRAS, class symbols
Sequence of GDP-bound NRAS wild-type protein (P01111 whole entry): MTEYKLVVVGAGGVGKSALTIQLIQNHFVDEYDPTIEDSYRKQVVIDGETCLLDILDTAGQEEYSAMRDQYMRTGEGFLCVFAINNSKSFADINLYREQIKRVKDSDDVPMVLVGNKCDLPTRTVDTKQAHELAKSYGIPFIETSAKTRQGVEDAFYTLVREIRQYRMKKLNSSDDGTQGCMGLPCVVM

[2] = target: GDP-bound HRAS wild-type protein (Homo sapiens, UniProt P01112); assay: Binding to HRAS by surface plasmon resonance (SPR), Single Cycle Kinetics; conditions: for HRAS/KRAS (ratio of KD value with respect to GDP-bound HRAS wild-type protein to KD value with respect to KRAS): SPR KD ratio HRAS/KRAS, class symbols
Sequence of GDP-bound HRAS wild-type protein (P01112 whole entry): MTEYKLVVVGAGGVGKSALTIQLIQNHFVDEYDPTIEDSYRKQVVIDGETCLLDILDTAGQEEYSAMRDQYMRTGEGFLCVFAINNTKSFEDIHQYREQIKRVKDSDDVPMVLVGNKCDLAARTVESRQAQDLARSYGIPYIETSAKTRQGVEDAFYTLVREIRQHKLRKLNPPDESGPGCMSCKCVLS

[3] = SPR, GDP-bound NRAS wild-type protein vs GDP-bound KRAS wild-type protein
[4] = SPR, GDP-bound HRAS wild-type protein vs GDP-bound KRAS wild-type protein

| SMILES | NRAS/KRAS (ratio of KD value for NRAS to KD value for KRAS) [1, 3] | HRAS/KRAS (ratio of KD value for HRAS to KD value for KRAS) [2, 4] | other results |
| --- | --- | --- | --- |
| CCC[C@H]1C(=O)N[C@@H]([C@@H](C)CC)C(=O)N(C)CC(=O)N(C)[C@H]2C/C=C\CCN(C2=O)[C@@H](Cc2ccc(C)cc2)C(=O)N(C)CC(=O)N[C@@H](CCc2ccc(Cl)c(Cl)c2)C(=O)N2C[C@H](OCC)C[C@H]2C(=O)NC2(CC(C)(C)C2)C(=O)N(C)[C@@H](CC2CC2)C(=O)N(C)[C@H](C(=O)N(C)C)CC(=O)N1C [PP2799] |  |  | NRAS/KRAS (ratio of KD value with respect to GDP-bound NRAS wild-type protein to KD value with respect to KRAS) [1]: A (a compound having 10 or more and less than 20 is denoted as A); HRAS/KRAS (ratio of KD value with respect to GDP-bound HRAS wild-type protein to KD value with respect to KRAS) [2]: A (a compound having 10 or more and less than 20 is denoted as A) |
| CCO[C@@H]1C[C@H]2C(=O)NC3(CC(C)(C)C3)C(=O)N(C)[C@@H](C3CCCC3)C(=O)N(C)[C@H](C(=O)N(C)C)CC(=O)N(C)[C@@H](CC(C)C)C(=O)N[C@@H]([C@@H](C)CC)C(=O)N(C)CC(=O)N(C)[C@H]3C/C=C\CCN(C3=O)[C@@H](Cc3ccc(C4CC4)cc3)C(=O)N(C)CC(=O)N[C@@H](CCc3ccc(C(F)(F)F)c(OC)c3)C(=O)N2C1 [PP2691, (2S,8S,12R,14S,20S,23S,27S,30S,36S,38Z)-20-cyclopentyl-2-[(4-cyclopropylphenyl)methyl]-12-ethoxy-27-isobutyl-8-[2-[3-methoxy-4-(trifluoromethyl)phenyl]ethyl]-N,N,3′,3′,4,19,22,26,32,35-decamethyl-30-[(1S)-1-methylpropyl]-3,6,9,15,18,21,25,28,31,34,42-undecaoxo-spiro[1,4,7,10,16,19,22,26,29,32,35-undecazatricyclo[34.5.1.0^10,14]dotetracont-38-ene-17,1′-cyclobutane]-23-carboxamide] |  |  | NRAS/KRAS (ratio of KD value with respect to GDP-bound NRAS wild-type protein to KD value with respect to KRAS) [1]: AA (a compound having 20 or more is denoted as AA); HRAS/KRAS (ratio of KD value with respect to GDP-bound HRAS wild-type protein to KD value with respect to KRAS) [2]: A (a compound having 10 or more and less than 20 is denoted as A) |
| CCO[C@@H]1C[C@H]2C(=O)NC3(CCC3)C(=O)N(C)[C@@H](C3CCCC3)C(=O)N(C)[C@H](C(=O)N3CCOCC3)CC(=O)N(C)[C@@H](CC3CCC3)C(=O)N[C@@H]([C@@H](C)CC)C(=O)N(C)CC(=O)N(C)[C@H]3CCCCCN(C3=O)[C@@H](Cc3ccc(C(F)(F)F)cc3)C(=O)N(C)CC(=O)N[C@@H](CCc3cc(F)c(C(F)(F)F)c(F)c3)C(=O)N2C1 [PP0683] |  |  | NRAS/KRAS (ratio of KD value with respect to NRAS to KD value with respect to KRAS) [1, 3]: B (a compound having 3 or more and less than 10 is denoted as B); HRAS/KRAS (ratio of KD value with respect to HRAS to KD value with respect to KRAS) [2, 4]: B (a compound having 3 or more and less than 10 is denoted as B) |
| CCCOC[C@H]1C(=O)N[C@@H]([C@@H](C)CC)C(=O)N(C)CC(=O)N(C)[C@H]2C/C=C\CCN(C2=O)[C@@H](Cc2ccc(C)cc2)C(=O)N(C)CC(=O)N[C@@H](CCc2cc(F)c(C(F)(F)F)c(F)c2)C(=O)N2C[C@H](CCC)C[C@H]2C(=O)NC2(CC(C)(C)C2)C(=O)N(C)[C@@H](C2CCCC2)C(=O)N(C)[C@H](C(=O)N(C)C)CC(=O)N1C [PP2203] | A (a compound having 10 or more and less than 20 is denoted as A) | A (a compound having 10 or more and less than 20 is denoted as A) |  |
| CCO[C@@H]1C[C@H]2C(=O)NC3(CCC3)C(=O)N(C)[C@@H](C3CCCC3)C(=O)N(C)[C@H](C(=O)N3CCOCC3)CC(=O)N(C)[C@@H](CC(C)C)C(=O)N[C@@H](C3CC(F)(F)C3)C(=O)N(C)CC(=O)N(C)[C@H]3CCCCCN(C3=O)[C@@H](Cc3ccc(C(F)(F)F)cc3)C(=O)N(C)CC(=O)N[C@@H](CCc3cc(F)c(C(F)(F)F)c(F)c3)C(=O)N2C1 [PP0816] | A (a compound having 10 or more and less than 20 is denoted as A) | B (a compound having 3 or more and less than 10 is denoted as B) |  |
| CC[C@@H]1C[C@H]2C(=O)NC3(CCC3)C(=O)N(C)[C@@H](C3CCCC3)C(=O)N(C)[C@H](C(=O)N(C)C)CC(=O)N(C)[C@@H](CC(C)C)C(=O)N[C@@H]([C@@H](C)CC)C(=O)N(C)CC(=O)N(C)[C@H]3C/C=C\CCN(C3=O)[C@@H](Cc3ccc(C)cc3)C(=O)N(C)CC(=O)N[C@@H](CCc3cc(F)c(C(F)(F)F)c(F)c3)C(=O)N2C1 [PP2220] | A (a compound having 10 or more and less than 20 is denoted as A) | A (a compound having 10 or more and less than 20 is denoted as A) |  |
| CCCN1C(=O)CN(C)C(=O)CN(C)C(=O)[C@H]([C@@H](C)CC)NC(=O)[C@@H]2CCCCOc3ccc(cc3)C[C@H]1C(=O)N(C)CC(=O)N[C@@H](CCc1cc(F)c(C(F)(F)F)c(F)c1)C(=O)N1C[C@H](OCC)C[C@H]1C(=O)NC1(CCCC1)C(=O)N(C)[C@@H](C1CCCC1)C(=O)N(C)[C@H](C(=O)N(C)C)CC(=O)N2C [PP0894] | C (A compound having a KD ratio of 0.1 or more and less than 3 is denoted as C) | C (A compound having a KD ratio of 0.1 or more and less than 3 is denoted as C) |  |
| CC[C@H](C)[C@@H]1NC(=O)[C@H](CC(C)C)N(C)C(=O)C[C@@H](C(=O)N2CCOCC2)N(C)C(=O)[C@H](C2CCCC2)N(C)C(=O)C2(CCCC2)NC(=O)[C@@H]2CCCN2C(=O)[C@H](CCc2cc(F)c(C(F)(F)F)c(F)c2)NC(=O)CN(C)C(=O)[C@H](Cc2ccc(F)cc2)N2CCCCC[C@@H](C2=O)N(C)C(=O)CN(C)C1=O [PP0964] | B (a compound having 3 or more and less than 10 is denoted as B) | B (a compound having 3 or more and less than 10 is denoted as B) |  |
| CCC[C@H]1C(=O)N[C@@H]([C@@H](C)CC)C(=O)N(C)CC(=O)N(C)[C@H]2C/C=C\CCN(C2=O)[C@@H](Cc2ccc(C(F)(F)F)cc2)C(=O)N(C)CC(=O)N[C@@H](CCc2ccc(C(F)(F)F)c(CC)c2)C(=O)N2C[C@H](OCC)C[C@H]2C(=O)NC2(CC(C)(C)C2)C(=O)N(C)[C@@H](C2CCCC2)C(=O)N(C)[C@H](C(=O)N(C)C)CC(=O)N1C [PP2861] |  |  | NRAS/KRAS (ratio of KD value with respect to GDP-bound NRAS wild-type protein to KD value with respect to KRAS) [1]: A (a compound having 10 or more and less than 20 is denoted as A); HRAS/KRAS (ratio of KD value with respect to GDP-bound HRAS wild-type protein to KD value with respect to KRAS) [2]: B (a compound having 3 or more and less than 10 is denoted as B) |
| CCO[C@@H]1C[C@H]2C(=O)NC3(CCC3)C(=O)N(C)[C@@H](C3CCCC3)C(=O)N(C)[C@H](C)CC(=O)N(C)[C@@H](CC(C)C)C(=O)N[C@@H]([C@@H](C)CC)C(=O)N(C)CC(=O)N(C)[C@H]3C/C=C\CCN(C3=O)[C@@H](Cc3ccc(C(F)(F)F)cc3)C(=O)N(C)CC(=O)N[C@@H](CCc3cc(F)c(C(F)(F)F)c(F)c3)C(=O)N2C1 [PP1100] | B (a compound having 3 or more and less than 10 is denoted as B) | B (a compound having 3 or more and less than 10 is denoted as B) |  |
| CCO[C@@H]1C[C@H]2C(=O)NC3(CC(C)(C)C3)C(=O)N(C)[C@@H](C3CCCC3)C(=O)N(C)[C@H](C(=O)N(C)CC)CC(=O)N(C)[C@H]3C/C=C/c4ccc(cc4)C[C@@H](C(=O)N(C)CC(=O)N[C@@H](CCc4ccc(Cl)c(Cl)c4)C(=O)N2C1)N1CC/C=C\C[C@@H](C1=O)N(C)C(=O)CN(C)C(=O)[C@H]([C@@H](C)CC)NC3=O [PP3056] | A (a compound having 10 or more and less than 20 is denoted as A) | A (a compound having 10 or more and less than 20 is denoted as A) |  |
| CC[C@H](C)[C@@H]1NC(=O)[C@H](CC2CC2)N(C)C(=O)C[C@@H](C(=O)N2CCCC2)N(C)C(=O)[C@H](C2CCCC2)N(C)C(=O)C2(CCCC2)NC(=O)[C@@H]2C[C@@H](C(F)(F)F)CN2C(=O)[C@H](CCc2cc(F)c(C(F)(F)F)c(F)c2)NC(=O)CN(C)C(=O)[C@H](Cc2ccc(F)cc2)N2CC/C=C\C[C@@H](C2=O)N(C)C(=O)CN(C)C1=O [PP1509] |  |  | NRAS/KRAS (ratio of KD value for NRAS to KD value for KRAS) ([1]; SPR, GDP-bound NRAS wild-type protein vs GDP-bound KRAS wild-type protein, KD ratio class): A (a compound having 10 or more and less than 20 is denoted as A); HRAS/KRAS (ratio of KD value for HRAS to KD value for KRAS) ([2]; SPR, GDP-bound HRAS wild-type protein vs GDP-bound KRAS wild-type protein, KD ratio class): A (a compound having 10 or more and less than 20 is denoted as A) |
| CCC[C@@H]1C[C@H]2C(=O)NC3(CC(C)(C)C3)C(=O)N(C)[C@@H](C3CCCC3)C(=O)N(C)[C@H](C(=O)N(C)C)CC(=O)N(C)[C@@H](CCC)C(=O)N[C@@H]([C@@H](C)CC)C(=O)N(C)CC(=O)N(C)[C@H]3C/C=C\CCN(C3=O)[C@@H](Cc3ccc(C)cc3)C(=O)N(C)CC(=O)N[C@@H](CCc3ccc(C(F)(F)F)c(Cl)c3)C(=O)N2C1 [PP2214] | A (a compound having 10 or more and less than 20 is denoted as A) | A (a compound having 10 or more and less than 20 is denoted as A) |  |
| CCC[C@@H]1C[C@H]2C(=O)NC3(CCC3)C(=O)N(C)[C@@H](C3CCCC3)C(=O)N(C)[C@H](C(=O)N(C)C)CC(=O)N(C)[C@@H](CC)C(=O)N[C@@H]([C@@H](C)CC)C(=O)N(C)CC(=O)N(C)[C@H]3C/C=C\CCN(C3=O)[C@@H](Cc3ccc(C)cc3)C(=O)N(C)CC(=O)N[C@@H](CCc3cc(F)c(C(F)(F)F)c(F)c3)C(=O)N2C1 [PP2233] | A (a compound having 10 or more and less than 20 is denoted as A) | A (a compound having 10 or more and less than 20 is denoted as A) |  |
